Results published in US12187742B2 (XRAD Therapeutics, Inc., priority 2018, dated 2025).
Counter-ions that a name gives are not always drawn.

How the values were obtained:
ATM = ATM (Homo sapiens (Human), UniProt Q13315); assay: ATM in Cell Western Assay (pKAP1 in etoposide-treated MCF-7 cells); type: cell-based; conditions: MCF-7 cells, etoposide 100 μM, 1 hr, pKAP1 readout
Procedure, shortened: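 Cells received compounds in a 10-dose, 3-fold series from a 1 μM final top concentration, then 100 μM etoposide, for 1 hr at 37° C. They were then fixed with paraformaldehyde and permeabilized with 0.1% Triton X-100. After immunostaining, plates were scanned on an infrared imager.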

DNA-PK = DNA-PK (Homo sapiens (Human), UniProt P78527); assay: DNA-PK Enzyme-Linked Immunosorbent Assay (phosphorylation of GST-p53 (1-101) peptide); type: biochemical; conditions: ELISA, ATP 20 μM
Procedure, shortened: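 ELISA with plate-bound GST-p53 (1-101) phosphorylated by DNA-PK (0.1 μg/mL final) with 20 μM ATP for 1 h at 25 °C. Compounds tested over 10 3-fold doses from 100 nM top final. Phospho-p53 Ser15 detected by antibody, HRP and TMB, absorbance at 450 nm.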

Sequence of ATM (Q13315 whole entry): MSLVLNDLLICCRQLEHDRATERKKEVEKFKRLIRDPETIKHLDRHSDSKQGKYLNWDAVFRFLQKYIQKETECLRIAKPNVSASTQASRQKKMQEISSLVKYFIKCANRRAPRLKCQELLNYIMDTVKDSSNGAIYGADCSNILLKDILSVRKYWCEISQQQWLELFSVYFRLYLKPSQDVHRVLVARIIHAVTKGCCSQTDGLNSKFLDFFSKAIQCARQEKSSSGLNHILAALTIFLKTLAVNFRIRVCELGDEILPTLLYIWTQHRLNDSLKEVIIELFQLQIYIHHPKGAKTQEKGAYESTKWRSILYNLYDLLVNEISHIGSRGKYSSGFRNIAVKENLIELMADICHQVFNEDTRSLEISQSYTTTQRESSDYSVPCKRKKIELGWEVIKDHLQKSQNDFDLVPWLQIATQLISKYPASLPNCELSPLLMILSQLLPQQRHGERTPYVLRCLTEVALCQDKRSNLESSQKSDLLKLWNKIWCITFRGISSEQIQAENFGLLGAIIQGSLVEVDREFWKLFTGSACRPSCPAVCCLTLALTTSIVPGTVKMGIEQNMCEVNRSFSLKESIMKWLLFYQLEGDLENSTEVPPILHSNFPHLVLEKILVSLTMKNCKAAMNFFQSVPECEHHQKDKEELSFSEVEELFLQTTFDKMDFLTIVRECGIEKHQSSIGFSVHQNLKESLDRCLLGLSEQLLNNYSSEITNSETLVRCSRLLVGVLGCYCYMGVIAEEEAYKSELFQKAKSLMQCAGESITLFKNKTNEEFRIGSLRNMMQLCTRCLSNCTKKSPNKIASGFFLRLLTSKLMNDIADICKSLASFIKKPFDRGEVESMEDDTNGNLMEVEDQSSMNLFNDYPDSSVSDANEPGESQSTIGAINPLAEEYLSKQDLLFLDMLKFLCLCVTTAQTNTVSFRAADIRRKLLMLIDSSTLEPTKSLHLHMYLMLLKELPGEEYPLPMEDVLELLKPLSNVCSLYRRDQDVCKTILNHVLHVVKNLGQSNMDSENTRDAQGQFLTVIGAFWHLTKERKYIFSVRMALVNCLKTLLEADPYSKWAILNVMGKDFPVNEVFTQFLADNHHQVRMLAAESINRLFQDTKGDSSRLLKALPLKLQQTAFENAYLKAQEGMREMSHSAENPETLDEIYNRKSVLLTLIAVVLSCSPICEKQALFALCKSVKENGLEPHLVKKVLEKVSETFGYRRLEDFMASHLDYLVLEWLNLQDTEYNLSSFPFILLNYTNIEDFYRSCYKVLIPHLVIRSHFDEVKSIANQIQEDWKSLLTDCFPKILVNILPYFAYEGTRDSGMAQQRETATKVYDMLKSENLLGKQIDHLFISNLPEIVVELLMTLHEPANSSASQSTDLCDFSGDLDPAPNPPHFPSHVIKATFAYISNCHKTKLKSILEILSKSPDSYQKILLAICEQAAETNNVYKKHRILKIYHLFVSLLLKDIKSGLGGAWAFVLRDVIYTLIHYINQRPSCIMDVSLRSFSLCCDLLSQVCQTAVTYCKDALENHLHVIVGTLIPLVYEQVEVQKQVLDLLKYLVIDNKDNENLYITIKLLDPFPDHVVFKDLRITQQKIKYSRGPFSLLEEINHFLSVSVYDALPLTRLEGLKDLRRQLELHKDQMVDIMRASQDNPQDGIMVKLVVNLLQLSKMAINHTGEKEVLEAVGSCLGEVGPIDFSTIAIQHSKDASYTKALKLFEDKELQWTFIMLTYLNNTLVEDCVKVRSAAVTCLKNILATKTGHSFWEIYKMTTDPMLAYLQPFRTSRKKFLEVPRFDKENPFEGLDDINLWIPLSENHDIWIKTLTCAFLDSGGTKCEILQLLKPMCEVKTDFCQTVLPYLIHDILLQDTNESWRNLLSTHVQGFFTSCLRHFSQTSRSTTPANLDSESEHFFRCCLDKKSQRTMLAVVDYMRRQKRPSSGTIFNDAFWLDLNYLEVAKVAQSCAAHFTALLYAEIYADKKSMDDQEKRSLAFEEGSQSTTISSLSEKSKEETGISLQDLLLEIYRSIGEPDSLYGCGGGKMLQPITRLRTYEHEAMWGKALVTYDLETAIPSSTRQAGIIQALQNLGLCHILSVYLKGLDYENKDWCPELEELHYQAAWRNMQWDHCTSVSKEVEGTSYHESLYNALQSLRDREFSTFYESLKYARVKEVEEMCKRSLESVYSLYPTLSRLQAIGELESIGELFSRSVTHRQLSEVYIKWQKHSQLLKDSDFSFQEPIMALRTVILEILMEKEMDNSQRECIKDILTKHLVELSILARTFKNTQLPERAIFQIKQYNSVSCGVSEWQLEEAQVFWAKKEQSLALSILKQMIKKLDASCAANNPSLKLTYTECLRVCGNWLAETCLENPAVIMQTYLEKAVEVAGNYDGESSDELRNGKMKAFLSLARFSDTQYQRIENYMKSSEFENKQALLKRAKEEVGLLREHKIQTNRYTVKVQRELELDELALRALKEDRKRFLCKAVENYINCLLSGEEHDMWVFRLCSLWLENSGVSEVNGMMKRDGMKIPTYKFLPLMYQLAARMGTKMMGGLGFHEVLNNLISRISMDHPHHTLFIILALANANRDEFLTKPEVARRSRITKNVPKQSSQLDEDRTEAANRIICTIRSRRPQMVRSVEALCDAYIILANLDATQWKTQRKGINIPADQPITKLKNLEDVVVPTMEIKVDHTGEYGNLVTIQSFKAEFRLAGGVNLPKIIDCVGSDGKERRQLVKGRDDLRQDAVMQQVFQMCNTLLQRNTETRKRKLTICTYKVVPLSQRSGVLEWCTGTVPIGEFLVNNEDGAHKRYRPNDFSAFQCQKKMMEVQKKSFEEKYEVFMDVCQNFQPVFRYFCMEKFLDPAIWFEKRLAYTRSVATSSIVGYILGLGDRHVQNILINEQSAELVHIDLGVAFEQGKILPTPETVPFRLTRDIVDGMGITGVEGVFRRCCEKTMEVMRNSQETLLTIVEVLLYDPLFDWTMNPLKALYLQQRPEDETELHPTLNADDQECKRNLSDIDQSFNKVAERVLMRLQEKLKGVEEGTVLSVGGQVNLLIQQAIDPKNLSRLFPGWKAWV

SMILES | IC50 (ATM) [nM] | IC50 (DNA-PK) [nM]
CN1C(=O)C2(CCC2)c2c1cnc1ccc(-c3cnc(OCCCN4CCCC4)c(NS(=O)(=O)c4ccccc4)c3)cc21 [Example 232, N-(5-(3′-Methyl-2′-oxo-2′,3′-dihydrospiro[cyclobutane-1,1′-pyrrolo[2,3-c]quinolin]-8′-yl)-2-(3-(pyrrolidin-1-yl)propoxy)pyridin-3-yl)benzenesulfonamide] | 1 to 100 | 0.5 to 1
Cc1cc(S(=O)(=O)Nc2cc(-c3ccc4ncc5c(c4c3)C3(CCC3)C(=O)N5C)cnc2N2CCC(N(C)C)CC2)sn1 [Example 233, N-(2-(4-(Dimethylamino)piperidin-1-yl)-5-(3′-methyl-2′-oxo-2′,3′-dihydrospiro[cyclobutane-1,1′-pyrrolo[2,3-c]quinolin]-8′-yl)pyridin-3-yl)-3-methylisothiazole-5-sulfonamide] | 1 to 100 | 0.5 to 1
CCS(=O)(=O)Nc1cc(-c2ccc3ncc4c(c3c2)C2(CCC2)C(=O)N4C)cnc1OCCCN(C)C [Example 238, N-(2-(3-(Dimethylamino)propoxy)-5-(3′-methyl-2′-oxo-2′,3′-dihydrospiro [cyclobutane-1,1′-pyrrolo[2,3-c]quinolin]-8′-yl)pyridin-3-yl) ethanesulfonamide] | 1 to 100 | 1 to 100
CN(C)CCCOc1ncc(-c2ccc3ncc4c(c3c2)C2(CCC2)C(=O)N4C)cc1NS(=O)(=O)C(F)(F)F [Example 239, N-(2-(3-(Dimethylamino)propoxy)-5-(3′-methyl-2′-oxo-2′,3′-dihydrospiro [cyclobutane-1,1′-pyrrolo[2,3-c]quinolin]-8′-yl)pyridin-3-yl)-1,1,1-trifluoromethane-sulfonamide] | 1 to 100 | < 0.5
CCCS(=O)(=O)Nc1cc(-c2ccc3ncc4c(c3c2)C2(CCC2)C(=O)N4C)cnc1OCCCN(C)C [Example 241, N-(2-(3-(Dimethylamino)propoxy)-5-(3′-methyl-2′-oxo-2′,3′-dihydrospiro [cyclobutane-1,1′-pyrrolo[2,3-c]quinolin]-8′-yl)pyridin-3-yl)propane-1-sulfonamide] | 1 to 100 | 1 to 100
CN1C(=O)C2(CCC2)c2c1cnc1ccc(-c3cnc(OCCCN4CCCC4)c(NS(=O)(=O)N(C)C)c3)cc21 [Example 242, 8′-(5-[(Dimethylsulfamoyl)amino]-6-[3-(pyrrolidin-1-yl)propoxy]pyridin-3-yl)-3′-methyl-2′,3′-dihydrospiro [cyclobutane-1,1′-pyrrolo[2,3-c]quinoline]-2′-one] | 0.5 to 1 | 1 to 100
CN(C)CCCOc1ncc(-c2ccc3ncc4c(c3c2)C2(CCC2)C(=O)N4C)cc1NS(=O)(=O)N1CCCC1 [Example 244, N-(2-(3-(Dimethylamino)propoxy)-5-(3′-methyl-2′-oxo-2′,3′-dihydrospiro [cyclobutane-1,1′-pyrrolo[2,3-c]quinolin]-8′-yl)pyridin-3-yl)pyrrolidine-1-sulfonamide] | 1 to 100 | 1 to 100
CCc1ncc(S(=O)(=O)Nc2cc(-c3ccc4ncc5c(c4c3)C3(CCC3)C(=O)N5C)cnc2OCCCN(C)C)s1 [Example 245, N-(2-(3-(Dimethylamino)propoxy)-5-(3′-methyl-2′-oxo-2′,3′-dihydrospiro [cyclobutane-1,1′-pyrrolo [2,3-c]quinolin]-8′-yl)pyridin-3-yl)-2-ethylthiazole-5-sulfonamide] | 1 to 100 | < 0.5
CN(C)CCCOc1ncc(-c2ccc3ncc4c(c3c2)C2(CCC2)C(=O)N4C)cc1NS(=O)(=O)C(F)F [Example 247, N-(2-(3-(Dimethylamino)propoxy)-5-(3′-methyl-2′-oxo-2′,3′-dihydrospiro [cyclobutane-1,1′-pyrrolo[2,3-c]quinolin]-8′-yl)pyridin-3-yl)-1,1′-difluoromethane-sulfonamide] | 1 to 100 | < 0.5
CNCCOc1ncc(-c2ccc3ncc4c(c3c2)C2(CCC2)C(=O)N4C)cc1NS(=O)(=O)c1ccccc1 [Example 250, N-(5-(3′-Methyl-2′-oxo-2′,3′-dihydrospiro[cyclobutane-1,1′-pyrrolo[2,3-c]quinolin]-8′-yl)-2-(2-(methylamino)ethoxy)pyridin-3-yl) benzenesulfonamide] | 1 to 100 | < 0.5
CN1C(=O)C2(CCC2)c2c1cnc1ccc(-c3cnc(OCCCN4CCCCC4)c(NS(=O)(=O)c4cccnc4)c3)cc21 [Example 252, N-(5-(3′-Methyl-2′-oxo-2′,3′-dihydrospiro [cyclobutane-1,1′-pyrrolo [2,3-c]quinolin]-8′-yl)-2-(3-(piperidin-1-yl)propoxy)pyridin-3-yl)pyridine-3-sulfonamide] | 1 to 100 | 1 to 100
CC(C)NCCOc1ncc(-c2ccc3ncc4c(c3c2)C2(CCCC2)C2=NCCN24)cc1NS(C)(=O)=O [Example 257, N-(5-(8′,9′-Dihydrospiro[cyclopentane-1,11′-imidazo[1′,2′:1,5]pyrrolo[2.3-c]quinolin]-2′-yl)-2-(2-(isopropylamino)ethoxy)pyridin-3-yl)methanesulfonamide] | 1 to 100 | < 0.5

Further lines, results first:

IC50 (ATM) [nM] | IC50 (DNA-PK) [nM] | SMILES
1 to 100 | 1 to 100 | CN1C(=O)C2(CCC2)c2c1cnc1ccc(-c3cnc(OCCCN4CCCC4)c(NS(=O)(=O)C4CC4)c3)cc21 [Example 235, N-(5-(3′-Methyl-2′-oxo-2′,3′-dihydrospiro[cyclobutane-1,1′-pyrrolo[2,3-c]quinolin]-8′-yl)-2-(3-(pyrrolidin-1-yl)propoxy)pyridin-3-yl)cyclopropanesulfonamide]
1 to 100 | 0.5 to 1 | CN1C(=O)C2(CCC2)c2c1cnc1ccc(-c3cnc(OCCCN4CCCC4)c(NS(C)(=O)=O)c3)cc21 [Example 236, N-(5-(3′-Methyl-2′-oxo-2′,3′-dihydrospiro[cyclobutane-1,1′-pyrrolo[2,3-c]quinolin]-8′-yl)-2-(3-(pyrrolidin-1-yl)propoxy)pyridin-3-yl)methanesulfonamide]
1 to 100 | 1 to 100 | CN(C)CCCOc1ncc(-c2ccc3ncc4c(c3c2)C2(CCC2)C(=O)N4)cc1NS(C)(=O)=O [Example 237, N-(2-(3-(Dimethylamino)propoxy)-5-(2′-oxo-2′,3′-dihydrospiro [cyclobutane-1,1′-pyrrolo[2,3-c]quinolin]-8′-yl)pyridin-3-yl)methanesulfonamide]
1 to 100 | < 0.5 | CNCCCOc1ncc(-c2ccc3ncc4c(c3c2)C2(CCC2)C(=O)N4C)cc1NS(C)(=O)=O [Example 240, N-(5-(3′-Methyl-2′-oxo-2′,3′-dihydrospiro[cyclobutane-1,1′-pyrrolo[2,3-c]quinolin]-8′-yl)-2-(3-(methylamino)propoxy)pyridin-3-yl) methanesulfonamide formate]
1 to 100 | 1 to 100 | CN1CCN(c2ncc(-c3ccc4ncc5c(c4c3)C3(CCC3)C(=O)N5C)cc2NS(=O)(=O)c2ccccc2)CC1 [Example 243, N-(5-(3′-Methyl-2′-oxo-2′,3′-dihydrospiro[cyclobutane-1,1′-pyrrolo[2,3-c]quinolin]-8′-yl)-2-(4-methylpiperazin-l-yl)Pyridin-3-yl)benzenesulfonamide]
1 to 100 | < 0.5 | Cc1cc(S(=O)(=O)Nc2cc(-c3ccc4ncc5c(c4c3)C3(CCC3)C(=O)N5C)cnc2N2CCN(C)CC2)sn1 [Example 246, 3-Methyl-N-(5-(3′-methyl-2′-oxo-2′,3′-dihydrospiro[cyclobutane-1,1′-pyrrolo[2,3-c]quinolin]-8′-yl)-2-(4-methylpiperazin-1-yl)pyridin-3-yl)isothiazole-5-sulfonamide]
1 to 100 | < 0.5 | CCNCCOc1ncc(-c2ccc3ncc4c(c3c2)C2(CCC2)C(=O)N4C)cc1NS(C)(=O)=O [Example 248, N-(2-(2-(Ethylamino)ethoxy)-5-(3′-methyl-2′-oxo-2′,3′-dihydrospiro[cyclobutane-1,1′-pyrrolo[2,3-c]quinolin]-8′-yl)pyridin-3-yl) methanesulfonamide]
1 to 100 | < 0.5 | CNCCOc1ncc(-c2ccc3ncc4c(c3c2)C2(CCC2)C(=O)N4C)cc1NS(C)(=O)=O [Example 249, N-(5-(3′-Methyl-2′-oxo-2′,3′-dihydrospiro[cyclobutane-1,1′-pyrrolo[2,3-c]quinolin]-8′-yl)-2-(2-(methylamino)ethoxy)pyridin-3-yl) methanesulfonamide]
1 to 100 | 0.5 to 1 | CN1C(=O)C2(CCC2)c2c1cnc1ccc(-c3cnc(N4CCC(N5CCCC(F)(F)C5)CC4)c(NS(C)(=O)=O)c3)cc21 [Example 251, N-(2-(3,3-Difluoro-[1,4′-bipiperidin]-1′-yl)-5-(3′-methyl-2′-oxo-2′,3′-dihydrospiro[cyclobutane-1,1′-pyrrolo[2,3-c]quinolin]-8′-yl)pyridin-3-yl)methanesulfonamide]
1 to 100 | 1 to 100 | CN(C)CCCOc1ncc(-c2ccc3ncc4c(c3c2)C2(CCC2)C(=O)N4C)cc1NS(=O)(=O)C1CCC1 [Example 253, N-(2-(3-(Dimethylamino)propoxy)-5-(3′-methyl-2′-oxo-2′,3′-dihydrospiro [cyclobutane-1,1′-pyrrolo[2,3-c]quinolin]-8′-yl)pyridin-3-yl) cyclobutanesulfonamide]
1 to 100 | 1 to 100 | CN(C)CCCOc1ncc(-c2ccc3ncc4c(c3c2)C2(CC(F)C2)C(=O)N4C)cc1NS(C)(=O)=O (stereo not shown) [Example 262, N-(2-(3-(Dimethylamino)propoxy)-5-(3-fluoro-3′-methyl-2′-oxo-2′,3′-dihydrospiro[cyclobutane-1,1′-pyrrolo[2,3-c]quinolin]-8′-yl)pyridin-3-yl)methanesulfonamide]
